Data reported in publication PMC5218480 (PLoS ONE, 2017).

Tested on: MV-4-11 cells
Assay: Gene expression microarray analysis (Affymetrix PrimeView) and GSEA
Assay type: cell-based, human
Parameters: RFU PODN (11730768_x_at) / Fold change /veh PODN (11730768_x_at) / RFU LINC00158 (11744669_a_at) / Fold change /veh LINC00158 (11744669_a_at) / RFU DUSP10 (11751237_a_at) / Fold change /veh DUSP10 (11751237_a_at) / RFU ID3 (11757404_x_at) / Fold change /veh ID3 (11757404_x_at) / RFU PLEKHG5 (11737974_s_at) / Fold change /veh PLEKHG5 (11737974_s_at) / RFU LRRC4B (11730491_at) / Fold change /veh LRRC4B (11730491_at) / RFU GIMAP4 (11747438_a_at) / Fold change /veh GIMAP4 (11747438_a_at) / RFU KRT8 (11758183_x_at) / Fold change /veh KRT8 (11758183_x_at) / RFU CNN1 (11734310_a_at) / Fold change /veh CNN1 (11734310_a_at) / RFU VPS37D (11726825_at) / Fold change /veh VPS37D (11726825_at) / RFU C10orf10 (11716522_x_at) / Fold change /veh C10orf10 (11716522_x_at) / RFU KIR2DL2 /// KIR2DL4 /// KIR2DL5A /// KIR2DL5B /// KIR2DS1 /// KIR2DS2 /// KIR2DS3 /// KIR2DS4 /// KIR3DL3 /// KIR3DL3 /// KIR3DS1 (11738374_at) / Fold change /veh KIR2DL2 /// KIR2DL4 /// KIR2DL5A /// KIR2DL5B /// KIR2DS1 /// KIR2DS2 /// KIR2DS3 /// KIR2DS4 /// KIR3DL3 /// KIR3DL3 /// KIR3DS1 (11738374_at) / RFU C1QL1 (11718748_at) / Fold change /veh C1QL1 (11718748_at) / RFU TMPRSS4 (11747572_a_at) / Fold change /veh TMPRSS4 (11747572_a_at) / RFU HAMP (11756126_x_at) / Fold change /veh HAMP (11756126_x_at) / RFU RNFT2 (11725882_a_at) / Fold change /veh RNFT2 (11725882_a_at) / RFU NR4A2 (11747474_a_at) / Fold change /veh NR4A2 (11747474_a_at) / RFU ABCC12 (11746883_a_at) / Fold change /veh ABCC12 (11746883_a_at) / RFU TMEM136 (11760407_x_at) / Fold change /veh TMEM136 (11760407_x_at) / RFU CLDN22 /// WWC2 (11732394_at) / Fold change /veh CLDN22 /// WWC2 (11732394_at) / RFU HLA-DPB1 (11760878_x_at) / Fold change /veh HLA-DPB1 (11760878_x_at) / RFU SPINT1 (11716480_a_at) / Fold change /veh SPINT1 (11716480_a_at) / RFU GAP43 (11754022_s_at) / Fold change /veh GAP43 (11754022_s_at) / RFU A4GNT (11735810_at) / Fold change /veh A4GNT (11735810_at) / RFU PRB3 (11715151_x_at) / Fold change /veh PRB3 (11715151_x_at) / RFU TUBB4B (11761932_at) / Fold change /veh TUBB4B (11761932_at) / RFU CAPN14 (11732068_a_at) / Fold change /veh CAPN14 (11732068_a_at) / RFU TMCC2 (11721928_a_at) / Fold change /veh TMCC2 (11721928_a_at) / RFU IRGQ (11745062_a_at) / Fold change /veh IRGQ (11745062_a_at) / RFU FAM174B (11720279_a_at) / Fold change /veh FAM174B (11720279_a_at) / RFU TMPRSS4 (11748680_a_at) / Fold change /veh TMPRSS4 (11748680_a_at) / RFU FAM212B (11763350_a_at) / Fold change /veh FAM212B (11763350_a_at) / RFU PLEKHG5 (11743358_a_at) / Fold change /veh PLEKHG5 (11743358_a_at) / RFU ZSCAN30 (11745921_a_at) / Fold change /veh ZSCAN30 (11745921_a_at) / RFU CMKLR1 (11741424_a_at) / Fold change /veh CMKLR1 (11741424_a_at) / RFU LOC101060620 /// MAPK8IP1 (11723275_at) / Fold change /veh LOC101060620 /// MAPK8IP1 (11723275_at) / RFU SPTSSB (11747773_x_at) / Fold change /veh SPTSSB (11747773_x_at) / RFU PRSS12 (11739890_at) / Fold change /veh PRSS12 (11739890_at) / RFU BIN1 (11741810_x_at) / Fold change /veh BIN1 (11741810_x_at) / RFU WNT11 (11732464_a_at) / Fold change /veh WNT11 (11732464_a_at) / RFU C10orf10 (11716521_a_at) / Fold change /veh C10orf10 (11716521_a_at) / RFU C5orf56 (11738089_at) / Fold change /veh C5orf56 (11738089_at) / RFU CYB561 (11721691_x_at) / Fold change /veh CYB561 (11721691_x_at) / RFU ANKRD19P (11752326_a_at) / Fold change /veh ANKRD19P (11752326_a_at) / RFU OR2T12 /// OR2T33 /// OR2T8 (11738714_s_at) / Fold change /veh OR2T12 /// OR2T33 /// OR2T8 (11738714_s_at) / RFU VCAN (11748164_a_at) / Fold change /veh VCAN (11748164_a_at) / RFU JSRP1 (11732532_at) / Fold change /veh JSRP1 (11732532_at) / RFU KRTAP10-11 (11738290_x_at) / Fold change /veh KRTAP10-11 (11738290_x_at) / RFU MYO3A (11730013_a_at) / Fold change /veh MYO3A (11730013_a_at) / RFU EBF3 (11725865_a_at) / Fold change /veh EBF3 (11725865_a_at) / RFU CAMK2N1 (11719241_x_at) / Fold change /veh CAMK2N1 (11719241_x_at) / RFU C5orf56 (11738088_a_at) / Fold change /veh C5orf56 (11738088_a_at) / RFU OLFML3 (11715873_a_at) / Fold change /veh OLFML3 (11715873_a_at) / RFU LOC100653217 /// NTM (11731650_a_at) / Fold change /veh LOC100653217 /// NTM (11731650_a_at) / RFU MAPK11 (11762145_a_at) / Fold change /veh MAPK11 (11762145_a_at) / RFU FIZ1 (11724087_x_at) / Fold change /veh FIZ1 (11724087_x_at) / RFU OASL (11726364_x_at) / Fold change /veh OASL (11726364_x_at) / RFU SOX15 (11748057_x_at) / Fold change /veh SOX15 (11748057_x_at) / RFU CD79A (11719716_a_at) / Fold change /veh CD79A (11719716_a_at) / RFU HIST1H1D (11736915_at) / Fold change /veh HIST1H1D (11736915_at) / RFU CASKIN2 (11723855_a_at) / Fold change /veh CASKIN2 (11723855_a_at) / RFU LOC730098 (11760151_x_at) / Fold change /veh LOC730098 (11760151_x_at) / RFU OR4N2 (11742367_at) / Fold change /veh OR4N2 (11742367_at) / RFU PRRT2 (11749266_a_at) / Fold change /veh PRRT2 (11749266_a_at) / RFU SNX32 (11753110_a_at) / Fold change /veh SNX32 (11753110_a_at) / RFU CDHR5 (11726645_a_at) / Fold change /veh CDHR5 (11726645_a_at) / RFU RCAN1 (11760418_a_at) / Fold change /veh RCAN1 (11760418_a_at) / RFU FAM167A (11723789_a_at) / Fold change /veh FAM167A (11723789_a_at) / RFU FAM26E (11764081_at) / Fold change /veh FAM26E (11764081_at) / RFU ISYNA1 (11749810_s_at) / Fold change /veh ISYNA1 (11749810_s_at) / RFU ACY1 (11761880_at) / Fold change /veh ACY1 (11761880_at) / RFU 11764098_at / Fold change /veh 11764098_at / RFU SAMD14 (11745864_x_at) / Fold change /veh SAMD14 (11745864_x_at) / RFU NPB (11741838_a_at) / Fold change /veh NPB (11741838_a_at) / RFU TMPRSS6 (11731388_a_at) / Fold change /veh TMPRSS6 (11731388_a_at) / RFU KRTAP10-2 (11738614_at) / Fold change /veh KRTAP10-2 (11738614_at) / RFU ARHGAP8 /// PRR5-ARHGAP8 (11727945_x_at) / Fold change /veh ARHGAP8 /// PRR5-ARHGAP8 (11727945_x_at) / RFU KRTAP5-7 /// NADSYN1 (11734609_at) / Fold change /veh KRTAP5-7 /// NADSYN1 (11734609_at) / RFU RASL12 (11751679_a_at) / Fold change /veh RASL12 (11751679_a_at) / RFU CDKN2B (11736163_a_at) / Fold change /veh CDKN2B (11736163_a_at) / RFU PRF1 (11729649_at) / Fold change /veh PRF1 (11729649_at) / RFU, ZNF638 /// ZNF638-IT1 / Fold change vs veh, ZNF638 /// ZNF638-IT1 / RFU, PANK3 / Fold change vs veh, PANK3 / RFU, SH3YL1 / Fold change vs veh, SH3YL1 / RFU, ZEB2 / Fold change vs veh, ZEB2 / RFU, NRIP1 / Fold change vs veh, NRIP1 / RFU, PTTG1IP / Fold change vs veh, PTTG1IP / RFU, CAPN2 / Fold change vs veh, CAPN2 / RFU, MED14 / Fold change vs veh, MED14 / RFU, SNORA58 / Fold change vs veh, SNORA58 / RFU, C1orf63 / Fold change vs veh, C1orf63 / RFU, LRRFIP1 / Fold change vs veh, LRRFIP1 / RFU, NDUFAF7 / Fold change vs veh, NDUFAF7 / RFU, SLC12A2 / Fold change vs veh, SLC12A2 / RFU, IBTK / Fold change vs veh, IBTK / RFU, ESF1 / Fold change vs veh, ESF1 / Fold change vs veh, TMEM50B / RFU, TAOK1 / Fold change vs veh, TAOK1 / RFU, ACBD3 / Fold change vs veh, ACBD3 / RFU, TMA16 / Fold change vs veh, TMA16 / RFU, RWDD3 / Fold change vs veh, RWDD3 / RFU, BCAT1 / Fold change vs veh, BCAT1 / RFU, EDEM3 / Fold change vs veh, EDEM3 / RFU, TMEM33 / Fold change vs veh, TMEM33 / RFU, WDR75 / Fold change vs veh, WDR75 / RFU, AHCTF1 / Fold change vs veh, AHCTF1 / RFU, TFRC / Fold change vs veh, TFRC / RFU, ZDHHC17 / Fold change vs veh, ZDHHC17 / RFU, NOM1 / Fold change vs veh, NOM1 / RFU, ARL8B / Fold change vs veh, ARL8B / RFU, ZBTB11 / Fold change vs veh, ZBTB11 / RFU, TAMM41 / Fold change vs veh, TAMM41 / RFU, KIAA1704 /// LOC100996395 / Fold change vs veh, KIAA1704 /// LOC100996395 / RFU, ING1 / Fold change vs veh, ING1 / RFU, TRMT61B / Fold change vs veh, TRMT61B / RFU, FUBP3 / Fold change vs veh, FUBP3 / RFU, TP53 / Fold change vs veh, TP53 / RFU, TNKS2 / Fold change vs veh, TNKS2 / RFU, ZFP14 / Fold change vs veh, ZFP14 / RFU, ACTR2 / Fold change vs veh, ACTR2 / RFU, PPP3R1 / Fold change vs veh, PPP3R1 / RFU, PIK3R1 / Fold change vs veh, PIK3R1 / RFU, HNRNPA1 / Fold change vs veh, HNRNPA1 / RFU, RNF170 / Fold change vs veh, RNF170 / RFU, ZNF28 / Fold change vs veh, ZNF28 / RFU, RNGTT / Fold change vs veh, RNGTT / RFU, OGT / Fold change vs veh, OGT / RFU, BRD1 / Fold change vs veh, BRD1 / RFU, MARS / Fold change vs veh, MARS / RFU, ZNF655 / Fold change vs veh, ZNF655 / RFU, FAHD1 / Fold change vs veh, FAHD1 / RFU, BDP1 / Fold change vs veh, BDP1 / RFU, LRRCC1 / Fold change vs veh, LRRCC1 / RFU, ARID1A / Fold change vs veh, ARID1A / RFU, ZNF146 / Fold change vs veh, ZNF146 / RFU, ZNF330 / Fold change vs veh, ZNF330 / RFU, GPN3 / Fold change vs veh, GPN3 / RFU, C9orf123 / Fold change vs veh, C9orf123 / RFU, N4BP2L2 / Fold change vs veh, N4BP2L2 / RFU, ARFIP1 / Fold change vs veh, ARFIP1 / RFU, FAM179B / Fold change vs veh, FAM179B / RFU, BCL10 / Fold change vs veh, BCL10 / RFU, UHRF1BP1L / Fold change vs veh, UHRF1BP1L / RFU, BET1 / Fold change vs veh, BET1 / RFU, CNOT2 / Fold change vs veh, CNOT2 / RFU, ZNF268 / Fold change vs veh, ZNF268 / Fold change vs veh, ZNF507 / RFU, DGCR2 / Fold change vs veh, DGCR2 / RFU, WDSUB1 / Fold change vs veh, WDSUB1 / Fold change vs veh, HSP90B1 /// MIR3652 / RFU, ADSS / Fold change vs veh, ADSS / RFU, GK / Fold change vs veh, GK / RFU, ZNF148 / Fold change vs veh, ZNF148 / RFU, TAF9 / Fold change vs veh, TAF9 / RFU, SLC1A5 / Fold change vs veh, SLC1A5 / RFU, SLMO2 / Fold change vs veh, SLMO2 / RFU, ABCC4 / Fold change vs veh, ABCC4 / RFU, LOC101060439 /// RAP1B / Fold change vs veh, LOC101060439 /// RAP1B / RFU, RFX7 / Fold change vs veh, RFX7 / RFU, GTPBP10 / Fold change vs veh, GTPBP10 / RFU, CNEP1R1 / Fold change vs veh, CNEP1R1 / RFU, BIVM-ERCC5 /// ERCC5 / Fold change vs veh, BIVM-ERCC5 /// ERCC5 / RFU, ILF3 / Fold change vs veh, ILF3 / RFU 11762660_at / Fold change /veh 11762660_at / RFU VCAN (11757783_s_at) / Fold change /veh VCAN (11757783_s_at) / RFU DDX43 (11728927_at) / Fold change /veh DDX43 (11728927_at) / RFU KRT8 (11758188_x_at) / Fold change /veh KRT8 (11758188_x_at) / RFU NKD1 (11759106_at) / Fold change /veh NKD1 (11759106_at) / RFU SRD5A1 (11742802_a_at) / Fold change /veh SRD5A1 (11742802_a_at) / RFU TPSAB1 /// TPSB2 (11721975_s_at) / Fold change /veh TPSAB1 /// TPSB2 (11721975_s_at) / RFU GSTM3 (11746129_a_at) / Fold change /veh GSTM3 (11746129_a_at) / RFU IL23R (11737362_x_at) / Fold change /veh IL23R (11737362_x_at) / RFU TMEM51 (11727254_a_at) / Fold change /veh TMEM51 (11727254_a_at) / RFU PIWIL2 (11732686_x_at) / Fold change /veh PIWIL2 (11732686_x_at) / RFU ORM1 (11744905_x_at) / Fold change /veh ORM1 (11744905_x_at) / RFU CCDC152 (11743942_at) / Fold change /veh CCDC152 (11743942_at) / RFU ECM1 (11717891_a_at) / Fold change /veh ECM1 (11717891_a_at) / RFU IL23R (11748794_a_at) / Fold change /veh IL23R (11748794_a_at) / RFU TNFAIP8L3 (11732012_x_at) / Fold change /veh TNFAIP8L3 (11732012_x_at) / RFU MBOAT4 (11741988_at) / Fold change /veh MBOAT4 (11741988_at) / RFU 11764193_at / Fold change /veh 11764193_at / RFU TMEM53 (11763286_at) / Fold change /veh TMEM53 (11763286_at) / RFU MAGEB2 (11727129_at) / Fold change /veh MAGEB2 (11727129_at) / RFU TMEM200A (11744735_a_at) / Fold change /veh TMEM200A (11744735_a_at) / RFU CCDC152 (11751479_a_at) / Fold change /veh CCDC152 (11751479_a_at) / RFU FAM211A (11726209_a_at) / Fold change /veh FAM211A (11726209_a_at) / RFU RGS16 (11746705_a_at) / Fold change /veh RGS16 (11746705_a_at) / RFU VCAN (11755009_s_at) / Fold change /veh VCAN (11755009_s_at) / RFU RHOB (11743442_s_at) / Fold change /veh RHOB (11743442_s_at) / RFU RGS16 (11720943_a_at) / Fold change /veh RGS16 (11720943_a_at) / RFU RGS16 (11720944_at) / Fold change /veh RGS16 (11720944_at) / RFU, VPS4B / Fold change vs veh, VPS4B / RFU, CREB1 / Fold change vs veh, CREB1 / RFU, DNAJC13 / Fold change vs veh, DNAJC13 / RFU, GNAQ / Fold change vs veh, GNAQ / RFU, CDK5R1 / Fold change vs veh, CDK5R1 / RFU, ZRANB3 / Fold change vs veh, ZRANB3 / RFU, CUL4A / Fold change vs veh, CUL4A / RFU, CCNY / Fold change vs veh, CCNY / RFU, UFL1 / Fold change vs veh, UFL1 / RFU, COG3 / Fold change vs veh, COG3 / RFU, DIAPH2 / Fold change vs veh, DIAPH2 / RFU, SKA2 / Fold change vs veh, SKA2 / RFU, AFF3 / Fold change vs veh, AFF3 / RFU, LMF1 / Fold change vs veh, LMF1 / RFU, IPO11 / Fold change vs veh, IPO11 / RFU, DFFB / Fold change vs veh, DFFB / RFU, FOXP1 / Fold change vs veh, FOXP1 / RFU, CARD8 / Fold change vs veh, CARD8 / RFU, STRN3 / Fold change vs veh, STRN3 / RFU, ADK / Fold change vs veh, ADK / RFU, RASSF2 / Fold change vs veh, RASSF2 / RFU, WIPF1 / Fold change vs veh, WIPF1 / RFU, LARP1B / Fold change vs veh, LARP1B / RFU, RASA1 / Fold change vs veh, RASA1 / RFU, RB1 / Fold change vs veh, RB1 / RFU, PPFIA1 / Fold change vs veh, PPFIA1 / RFU, MAT2A / Fold change vs veh, MAT2A / RFU, CCT5 / Fold change vs veh, CCT5 / RFU, WDR92 / Fold change vs veh, WDR92 / RFU, CUX1 / Fold change vs veh, CUX1 / RFU, TTC7A / Fold change vs veh, TTC7A / RFU, TMEM135 / Fold change vs veh, TMEM135 / RFU, DEPTOR / Fold change vs veh, DEPTOR / RFU, CPM / Fold change vs veh, CPM / RFU, DNAJB6 / Fold change vs veh, DNAJB6 / RFU, CACNA2D3 / Fold change vs veh, CACNA2D3 / RFU, DTX4 / Fold change vs veh, DTX4 / RFU, TFCP2 / Fold change vs veh, TFCP2 / RFU, GMCL1 /// GMCL1P1 / Fold change vs veh, GMCL1 /// GMCL1P1 / RFU, AEBP2 / Fold change vs veh, AEBP2 / RFU, SNHG1 /// SNORD22 /// SNORD25 /// SNORD26 /// SNORD27 /// SNORD28 /// SNORD29 /// SNORD31 / Fold change vs veh, SNHG1 /// SNORD22 /// SNORD25 /// SNORD26 /// SNORD27 /// SNORD28 /// SNORD29 /// SNORD31 / Fold change (Aza/veh), C12orf56 (ProbeSet 11735607_a_at) / Fold change (ACY-1035/veh), C12orf56 (ProbeSet 11735607_a_at) / Fold change (Aza/veh), FGFR1OP (ProbeSet 11751329_s_at) / Fold change (ACY-1035/veh), FGFR1OP (ProbeSet 11751329_s_at) / Fold change (Aza/veh), VPS36 (ProbeSet 11739960_a_at) / Fold change (ACY-1035/veh), VPS36 (ProbeSet 11739960_a_at) / RFU SYPL1 (11715823_x_at) / Fold change /veh SYPL1 (11715823_x_at) / RFU IGFBP7 (11715501_s_at) / Fold change /veh IGFBP7 (11715501_s_at) / RFU REEP3 (11722064_at) / Fold change /veh REEP3 (11722064_at) / RFU IGLL1 (11728026_x_at) / Fold change /veh IGLL1 (11728026_x_at): dose or concentration left out as unconfirmed
Settings: ProbeSet 11740781_a_at; LIST B

Nc1ncn([C@@H]2O[C@H](CO)[C@@H](O)[C@H]2O)c(=O)n1 [azacitidine]
Fold change vs veh, ILF3: 0.96
